Values quoted from earlier work as cited in PMC7904743, “WIDOCK: a reactive docking protocol for virtual screening of covalent inhibitors” (Journal of Computer-Aided Molecular Design, 2021).
Where two headings read alike, the source gives them in different places.

What was measured:
OTUB2 = details: experimental actives if % labeling higher than 50%, cited from earlier work
NUDT7 = details: protein labeling at 200 μM; experimental actives if % labeling higher than 50%; cited from earlier work
[1] = thiol reactivity, cited from earlier work
[2] = natural log of average rate constant k
[3] = natural logarithm of average rate constant
[4] = natural log of average rate constant
[5] = natural log of average kinetic rate constant

SMILES | NUDT7 % labeling (NUDT7) | ln(avg k) [1, 2] | also measured
O=C(CCl)NC(=O)NCC1COc2ccccc2O1 (stereo not shown) [PCM-0102092, O=C(CCl)NC(=O)NCC1COc2ccccc2O1] | 0% | -15.940 | OTUB2 % labeling (OTUB2): 0%; ln(avg k) [1, 3]: -15.940
O=C(CCl)N1CCN(c2ncccn2)CC1 [PCM-0102093, O=C(CCl)N1CCN(c2ncccn2)CC1] | 0% | -15.547 | OTUB2 % labeling (OTUB2): 0%; ln(avg k) [1, 3]: -15.547
O=C(CCl)N1CCN(c2ccc([N+](=O)[O-])cc2)CC1 [PCM-0102094, O=C(CCl)N1CCN(c2ccc([N+](=O)[O-])cc2)CC1] | 27% | -15.009 | OTUB2 % labeling (OTUB2): 0%; ln(avg k) [1, 3]: -15.009
Cc1csc(CC(=O)NNC(=O)CCl)n1 [PCM-0102095, Cc1csc(CC(=O)NNC(=O)CCl)n1] | 0% | -16.857 | OTUB2 % labeling (OTUB2): 51%; ln(avg k) [1, 3]: -16.857
CC(NC(=O)CCl)c1ccc(Cl)c(Cl)c1 (stereo not shown) [PCM-0102096, CC(NC(=O)CCl)c1ccc(Cl)c(Cl)c1] | 51% | -16.200 | OTUB2 % labeling (OTUB2): 26%; ln(avg k) [1, 3]: -16.200
O=C(CCl)Nc1cccc2ncccc12 [PCM-0102097, O=C(CCl)Nc1cccc2ncccc12] | 0% | -16.130 | OTUB2 % labeling (OTUB2): 42%; ln(avg k) [1, 3]: -16.130
Cc1ccc([N+](=O)[O-])cc1NC(=O)CCl [PCM-0102098, Cc1ccc([N+](=O)[O-])cc1NC(=O)CCl] | 12% | -15.712 | OTUB2 % labeling (OTUB2): 33%; ln(avg k) [1, 3]: -15.712
Cc1c(C#N)c(NC(=O)CCl)n(-c2ccc(F)cc2)c1C [PCM-0102099, Cc1c(C#N)c(NC(=O)CCl)n(-c2ccc(F)cc2)c1C] | 17% | -15.940 | OTUB2 % labeling (OTUB2): 0%; ln(avg k) [1, 3]: -15.940
O=C(CCl)Nc1ccc(-c2nnc3n2CCCCC3)cc1 [PCM-0102101, O=C(CCl)Nc1ccc(-c2nnc3n2CCCCC3)cc1] | 0% | -15.815 | OTUB2 % labeling (OTUB2): 28%; ln(avg k) [1, 3]: -15.815
Cc1nc(NC(=O)CCl)sc1C [PCM-0102124, Cc1nc(NC(=O)CCl)sc1C] |  |  | OTUB2 % labeling (OTUB2): 0%; ln(avg k) [1, 3]: -15.463
N#CC1(NC(=O)CCl)CCCC1 [PCM-0102136, N#CC1(NC(=O)CCl)CCCC1] | 0% | -15.612 | 
O=C(CCl)Nc1ccc2[nH]c(C(F)(F)F)nc2c1 [PCM-0102151, O=C(CCl)Nc1ccc2[nH]c(C(F)(F)F)nc2c1] | 7% | -15.575 | 
Cc1cccc([N+](=O)[O-])c1NC(=O)CCl [PCM-0102176, Cc1cccc([N+](=O)[O-])c1NC(=O)CCl] | 22% | -16.601 | 
O=C(CCl)N1N=C(c2ccco2)CC1c1cccs1 (stereo not shown) [PCM-0102182, O=C(CCl)N1N=C(c2ccco2)CC1c1cccs1] |  |  | OTUB2 % labeling (OTUB2): 0%; ln(avg k) [1, 3]: -14.540
O=C(CCl)Nc1ccc(N2CCCCCC2)cc1 [PCM-0102199, O=C(CCl)Nc1ccc(N2CCCCCC2)cc1] | 8% | -15.785 | 
Cc1cccc(N2CCN(C(=O)CCl)CC2)c1C [PCM-0102215, Cc1cccc(N2CCN(C(=O)CCl)CC2)c1C] | 29% | -15.103 | 
O=C(CCl)Nc1c(Cl)cccc1Cl [PCM-0102234, O=C(CCl)Nc1c(Cl)cccc1Cl] | 64% | -17.086 | 
CC1CCN(c2ccc(NC(=O)CCl)cc2)CC1 [PCM-0102235, CC1CCN(c2ccc(NC(=O)CCl)cc2)CC1] | 0% | -16.035 | 
Cc1ccccc1CNC(=O)CCl [PCM-0102253, Cc1ccccc1CNC(=O)CCl] | 0% | -16.467 | 
COc1ccc(NC(=O)NC(=O)CCl)cc1 [PCM-0102268, COc1ccc(NC(=O)NC(=O)CCl)cc1] | 0% | -15.795 | 
Cc1cc(N2CCCC2)ccc1NC(=O)CCl [PCM-0102301, Cc1cc(N2CCCC2)ccc1NC(=O)CCl] | 24% | -16.271 | 
O=C(CCl)NC1CCCCCCC1 [PCM-0102318, O=C(CCl)NC1CCCCCCC1] | 0% | -16.468 | 
Cc1cc(NC(=O)CCl)n(C)n1 [PCM-0102383, Cc1cc(NC(=O)CCl)n(C)n1] | 0% | -15.428 | 
Cc1ccc(NC(=O)CCl)c(Cl)c1 [PCM-0102408, Cc1ccc(NC(=O)CCl)c(Cl)c1] | 18% | -16.426 | 

SMILES | NUDT7 % labeling (NUDT7) | ln(avg k) [1, 2] | also measured
O=C(CCl)Nc1nncs1 [PCM-0102427, O=C(CCl)Nc1nncs1] |  |  | OTUB2 % labeling (OTUB2): 0%; ln(avg k) [1, 3]: -16.300
CC1CCCCN1C(=O)CCl (stereo not shown) [PCM-0102434, CC1CCCCN1C(=O)CCl] | 0% | -15.958 | 
O=C(CCl)N1CCC2CCCCC2C1 (stereo not shown) [PCM-0102474, O=C(CCl)N1CCC2CCCCC2C1] |  |  | OTUB2 % labeling (OTUB2): 0%; ln(avg k) [1, 3]: -15.859
O=C(CCl)N1CCc2[nH]c3ccccc3c2C1 [PCM-0102591, O=C(CCl)N1CCc2[nH]c3ccccc3c2C1] | 22% | -14.023 | 
Cc1cc(NC(=O)CCl)ccc1Br [PCM-0102770, Cc1cc(NC(=O)CCl)ccc1Br] | 21% |  | ln(avg k) [1, 4]: -15.518
O=C(CCl)N(C1CC1)C1CCCc2ccccc21 (stereo not shown) [PCM-0102774, O=C(CCl)N(C1CC1)C1CCCc2ccccc21] |  |  | OTUB2 % labeling (OTUB2; OTUB2 protein labeling): 0%; ln(avg k) [1, 5]: -16.197
CC1CCC(N(C(=O)CCl)C2CC2)CC1 (stereo not shown) [PCM-0102792, CC1CCC(N(C(=O)CCl)C2CC2)CC1] | 13% |  | ln(avg k) [1, 4]: -16.001
O=C(CCl)Nc1ccc2c(c1)OC1(CCCC1)O2 [PCM-0102801, O=C(CCl)Nc1ccc2c(c1)OC1(CCCC1)O2] | 10% |  | ln(avg k) [1, 4]: -15.785
O=C(CCl)Nc1ccc(N2CCCCC2)nc1 [PCM-0102812, O=C(CCl)Nc1ccc(N2CCCCC2)nc1] | 14% |  | ln(avg k) [1, 4]: -15.797
O=C(CCl)NC1CCC2(CC1)OCCO2 [PCM-0102820, O=C(CCl)NC1CCC2(CC1)OCCO2] |  |  | OTUB2 % labeling (OTUB2; OTUB2 protein labeling): 13%; ln(avg k) [1, 5]: -16.468
CN(C)c1ccc(NC(=O)CCl)cc1 [PCM-0102859, CN(C)c1ccc(NC(=O)CCl)cc1] | 0% |  | ln(avg k) [1, 4]: -14.235
O=C(CCl)NC1CCC(C(F)(F)F)CC1 (stereo not shown) [PCM-0102864, O=C(CCl)NC1CCC(C(F)(F)F)CC1] | 0% |  | ln(avg k) [1, 4]: -16.404
C=CC(=O)Nc1nc(-c2ccc(O)cc2)cs1 [PCM-0102884, C=CC(=O)Nc1nc(-c2ccc(O)cc2)cs1] |  |  | OTUB2 % labeling (OTUB2; OTUB2 protein labeling): 0%; ln(avg k) [1, 5]: -17.011
O=C(CCl)Nc1ccc2c(c1)NC(=O)CO2 [PCM-0102890, O=C(CCl)Nc1ccc2c(c1)NC(=O)CO2] | 8% |  | OTUB2 % labeling (OTUB2; OTUB2 protein labeling): 32%
O=C(CCl)Nc1ccccc1O [PCM-0102907, O=C(CCl)Nc1ccccc1O] | 36% |  | ln(avg k) [1, 4]: -17.265
Cc1ccccc1CN1CCCN(C(=O)CCl)CC1 [PCM-0102911, Cc1ccccc1CN1CCCN(C(=O)CCl)CC1] | 0% |  | OTUB2 % labeling (OTUB2; OTUB2 protein labeling): 0%
CC(=O)NC1CCCN(C(=O)CCl)C1 (stereo not shown) [PCM-0102934, CC(=O)NC1CCCN(C(=O)CCl)C1] | 0% |  | ln(avg k) [1, 4]: -15.534
CN(Cc1cccc(Cl)c1)C(=O)CCl [PCM-0102976, CN(Cc1cccc(Cl)c1)C(=O)CCl] |  |  | OTUB2 % labeling (OTUB2; OTUB2 protein labeling): 0%; ln(avg k) [1, 5]: -16.166
O=C(CCl)Nc1nc(-c2ccco2)cs1 [PCM-0102979, O=C(CCl)Nc1nc(-c2ccco2)cs1] | 25% |  | ln(avg k) [1, 4]: -15.876
CC(NC(=O)CCl)C(=O)O (stereo not shown) [PCM-0102990, CC(NC(=O)CCl)C(=O)O] | 0% |  | ln(avg k) [1, 4]: -18.115
O=C(CCl)NCC#Cc1ccccc1 [PCM-0103007, O=C(CCl)NCC#Cc1ccccc1] |  |  | OTUB2 % labeling (OTUB2; OTUB2 protein labeling): 60%; ln(avg k) [1, 5]: -16.727
Cc1ccc(NC(=O)CCl)c(C)c1 [PCM-0103041, Cc1ccc(NC(=O)CCl)c(C)c1] | 0% |  | ln(avg k) [1, 4]: -16.644
Cc1ccc(CN2CCCN(C(=O)CCl)CC2)cc1 [PCM-0103056, Cc1ccc(CN2CCCN(C(=O)CCl)CC2)cc1] | 0% |  | OTUB2 % labeling (OTUB2; OTUB2 protein labeling): 0%
